Measured values: the NIST ThermoML archive (doi:10.1016/j.tca.2012.04.033)
Numbers after ± are expanded uncertainties.

Key:
[1] = Crystal; DTA
[2] = xn = mol fraction of the nth substance listed; conditions: 101 kPa, Liquid, Vibrating tube method
[3] = refractive index (Na D-line) (dimensionless); xn = mol fraction of the nth substance listed; conditions: 101 kPa, Liquid, Standard Abbe refractometry

C[Si](O[Si](C)(c1ccccc1)c1ccccc1)(c1ccccc1)c1ccccc1 [1,3-dimethyl-1,1,3,3-tetraphenyldisiloxane]
Conditions	Normal melting temperature [°C]
[1]	49.70 ± 0.4

C[Si](O[Si](C)(c1ccccc1)c1ccccc1)(c1ccccc1)c1ccccc1 [1,3-dimethyl-1,1,3,3-tetraphenyldisiloxane] + CC(C)O
303.15 K
Conditions	mass density, x1 = 0.00125 [kg/m3]	mass density, x1 = 0.00359 [kg/m3]	mass density, x1 = 0.00759 [kg/m3]	mass density, x1 = 0.01218 [kg/m3]	mass density, x1 = 0.01284 [kg/m3]	refractive index, x1 = 0.00125	refractive index, x1 = 0.00359	refractive index, x1 = 0.00759	refractive index, x1 = 0.01218	refractive index, x1 = 0.01284
[2]	778.65 ± 0.18	783.03 ± 0.19	788.42 ± 0.23	794.61 ± 0.23	795.14 ± 0.23	–	–	–	–	–
[3]	–	–	–	–	–	1.37416 ± 0.00033	1.37721 ± 0.00033	1.38094 ± 0.00035	1.38528 ± 0.00035	1.38568 ± 0.00035

C[Si](O[Si](C)(c1ccccc1)c1ccccc1)(c1ccccc1)c1ccccc1 [1,3-dimethyl-1,1,3,3-tetraphenyldisiloxane] + C[Si]1(C)O[Si](C)(C)O[Si](C)(C)O[Si](C)(C)O1
303.15 K
Conditions	mass density, x1 = 0.00724 [kg/m3]	mass density, x1 = 0.01526 [kg/m3]	mass density, x1 = 0.02752 [kg/m3]	mass density, x1 = 0.04184 [kg/m3]	mass density, x1 = 0.05492 [kg/m3]	refractive index, x1 = 0.00724	refractive index, x1 = 0.01526	refractive index, x1 = 0.02752	refractive index, x1 = 0.04184	refractive index, x1 = 0.05492
[2]	946.03 ± 0.13	947.52 ± 0.14	949.77 ± 0.15	952.36 ± 0.17	954.7 ± 0.2	–	–	–	–	–
[3]	–	–	–	–	–	1.39358 ± 0.00031	1.39553 ± 0.00032	1.3985 ± 0.00033	1.40193 ± 0.00035	1.40505 ± 0.00037

C[Si](O[Si](C)(c1ccccc1)c1ccccc1)(c1ccccc1)c1ccccc1 [1,3-dimethyl-1,1,3,3-tetraphenyldisiloxane] + CCCO
303.15 K
Conditions	mass density, x1 = 0.00161 [kg/m3]	mass density, x1 = 0.00428 [kg/m3]	mass density, x1 = 0.00956 [kg/m3]	mass density, x1 = 0.01076 [kg/m3]	mass density, x1 = 0.01339 [kg/m3]	refractive index, x1 = 0.00161	refractive index, x1 = 0.00428	refractive index, x1 = 0.00956	refractive index, x1 = 0.01076	refractive index, x1 = 0.01339
[2]	797.94 ± 0.18	801.12 ± 0.25	808.9 ± 0.42	810.51 ± 0.46	813.97 ± 0.56	–	–	–	–	–
[3]	–	–	–	–	–	1.38273 ± 0.00033	1.38545 ± 0.00035	1.39061 ± 0.00043	1.39176 ± 0.00045	1.39425 ± 0.0005

C[Si](O[Si](C)(c1ccccc1)c1ccccc1)(c1ccccc1)c1ccccc1 [1,3-dimethyl-1,1,3,3-tetraphenyldisiloxane] + CCO
298.15 K
Conditions	mass density, [2] [kg/m3]	refractive index, [3]
x1 = 0.0009	787.37 ± 0.18	1.36085 ± 0.00033
x1 = 0.00225	789.76 ± 0.19	1.36263 ± 0.00033
x1 = 0.00446	794.07 ± 0.22	1.36586 ± 0.00034
x1 = 0.00667	798.07 ± 0.26	1.36893 ± 0.00036
x1 = 0.00825	801.34 ± 0.28	1.37139 ± 0.00037
x1 = 0.01059	805.13 ± 0.32	1.37427 ± 0.00039
x1 = 0.01252	808.66 ± 0.38	1.37693 ± 0.00042

C[Si](O[Si](C)(c1ccccc1)c1ccccc1)(c1ccccc1)c1ccccc1 [1,3-dimethyl-1,1,3,3-tetraphenyldisiloxane] + CO
298.15 K
Conditions	mass density, x1 = 0.00036 [kg/m3]	mass density, x1 = 0.0009 [kg/m3]	mass density, x1 = 0.0018 [kg/m3]	mass density, x1 = 0.00241 [kg/m3]	mass density, x1 = 0.00364 [kg/m3]	refractive index, x1 = 0.00036	refractive index, x1 = 0.0009	refractive index, x1 = 0.0018	refractive index, x1 = 0.00241	refractive index, x1 = 0.00364
[2]	787.68 ± 0.18	789.17 ± 0.18	791.71 ± 0.19	793.31 ± 0.2	796.57 ± 0.23	–	–	–	–	–
[3]	–	–	–	–	–	1.3274 ± 0.00033	1.3287 ± 0.00033	1.33084 ± 0.00033	1.33228 ± 0.00034	1.33509 ± 0.00035
